Structures can show the parent of a compound that is named as a salt.
Tests used:
sigma 1 receptor [1] = biological target: T1, sigma 1 receptor (Cavia porcellus, UniProt Q60492); assay: Receptor binding experiment, sigma 1, [3H](+)-pentazocine, membrane of total brains of guinea pigs; set-up: species or system Hartley guinea pigs; conditions: [3H](+)-pentazocine (2 nM), 25° C., 120 minutes, 50 mM Tris-HCl pH 7.4; non-specific: 10 μM haloperidol; read-out: Sigma 1 (IC50, concentration of the test drug which inhibits individual binding by 50%)
T1 construct: A membrane specimen prepared from the total brains of guinea pigs; from tissue; host or cells: total brains of Hartley guinea pigs (membrane specimen)
Method: As experimental animals, Hartley guinea pigs were used. […] 121 (1994) using [^3 H] (+)-pentazocine (sigma 1) or [^3 H]1,3-di-o-tolylguanidine (DTG) (sigma 2) as a [^3 H]-labelled ligand.
A membrane specimen prepared from the total brains of guinea pigs, a [^3 H] ligand and a test drug were reacted in 50 mM Tris-HCl buffer (pH 7.4). For examining sigma 1, [^3 H](+)-pentazocine (2 nM) as a [^3 H] ligand was reacted at 25° C. for 120 minutes. For examining sigma 2, [^3 H] DTG (1 nM) as a [^3 H] ligand was reacted in the presence of 10^-7 M (+)-pentazocine at 25° C. for 90 minutes. After the completion of the reaction, the reaction solution was vacuum filtered through a glass filter (GF/B), and the radioactivity of the filter was determined with a liquid scintillation spectrometer.
The binding which occurred in the reaction in the presence 10 μM haloperidol was regarded as non-specific binding, and the difference obtained by subtracting non-specific binding from the total binding was regarded as specific binding. An inhibition curve was obtained by reacting a [^3 H] ligand at a specific concentration with a test drug at varied concentrations under the conditions described above. From this inhibition curve, the concentration of the test drug which inhibits individual binding by 50% (IC50) is obtained.

sigma 1 receptor [2] = conditions: cited from earlier work; for affinity for sigma 1 receptor: (agonist), Trends in Pharmacological Sciences, Vol. 13, pp. 85-86
humans = conditions: cited from earlier work

T1 sequence (Q60492 whole entry): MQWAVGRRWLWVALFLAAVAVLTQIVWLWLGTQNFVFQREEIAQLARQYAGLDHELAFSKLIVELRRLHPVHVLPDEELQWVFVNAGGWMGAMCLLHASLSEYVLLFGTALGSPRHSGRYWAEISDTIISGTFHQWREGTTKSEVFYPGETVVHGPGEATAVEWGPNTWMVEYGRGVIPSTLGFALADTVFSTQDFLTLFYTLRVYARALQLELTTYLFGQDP

Compound | IC50 (sigma 1 receptor [1]) | specificity to and affinity for sigma 1 receptor (sigma 1 receptor [2]; sigma antagonist, background art) | develop psychotic symptoms in humans (humans) | affinity for sigma 1 receptor (sigma 1 receptor [2])
CCCNC(CCC(C)C)Cc1ccc(OC)c(OCCc2ccccc2)c1 (single isomer, unassigned; (-)) [A, (-)-N-propyl-1-(3-methylbutyl)-2-[4-methoxy-3-(2-phenylethoxy)phenyl]ethylamine hydrochloride] | 0.46 nM |  |  | 
CCCCC(Cc1ccc(OC)c(OCCc2ccccc2)c1)NCCC (single isomer, unassigned; (-)) [B, (-)-N-propyl-1-butyl-2-[4-methoxy-3-(2-phenylethoxy)-phenyl]ethylamine hydrochloride] | 0.73 nM |  |  | 
C[C@@H]1CN(CCCn2c3ccccc3c3ccccc32)C[C@H](C)N1 [Rimcazole] |  | not sufficient |  | 
C=CCN1CCC2(C)c3cc(O)ccc3CC1C2C (stereo not shown) [SKF10047, N-arylnormethazocine] |  |  | develop psychotic symptoms in humans | high affinity
CC(C)=CCN1CCC2(C)c3cc(O)ccc3CC1C2C (stereo not shown) [pentazocine] |  |  | develop psychotic symptoms in humans | high affinity

Source: patent US5990151A, “Optically active substituted phenylalkylamine derivatives” (Taisho Pharmaceutical Co., Ltd., priority 1995, dated 1999)
